# “And” between values parts separate entries of the source, which are not always exact repeats. Equal entries are not always repeated.
# Key:
# CatL = target: T1, CatL (Homo sapiens, UniProt P07711); assay: Cathepsin inhibition test, CatL; format: biochemical; details: for Residual activity (Vi/V0): Fig. S3 panel b, single replicates
# T1 construct: made in house
# human CatV = target: T2, human CatV (Homo sapiens, UniProt O60911); assay: Cathepsin inhibition test, CatV; format: biochemical; details: Fig. S3 panel c, single replicates
# T2 construct: made in house
# human CatK = target: T3, human CatK (Homo sapiens, UniProt P43235); assay: Cathepsin inhibition test, CatK; format: biochemical; details: Fig. S3 panel a, single replicates
# T3 construct: made in house
# T3 sequence (P43235 115-329): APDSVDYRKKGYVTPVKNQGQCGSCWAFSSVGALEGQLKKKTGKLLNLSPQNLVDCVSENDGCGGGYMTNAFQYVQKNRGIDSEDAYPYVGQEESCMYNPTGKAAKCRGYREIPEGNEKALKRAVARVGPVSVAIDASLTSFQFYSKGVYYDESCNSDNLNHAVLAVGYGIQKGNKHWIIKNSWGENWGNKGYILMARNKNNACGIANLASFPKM
# SARS-CoV-2-GFP = assay: microbe, parasite or virus in culture; format: cell-based; details: mean with standard error, read-out: VERO E6 EC50
# [1] = inhibitor 0.189 nM, 0.000189 µM
# [2] = inhibitor 0.612 nM, 0.000612 µM
# [3] = inhibitor 1.103 nM, 0.001103 µM
# [4] = inhibitor 1.985 nM, 0.001985 µM
# [5] = inhibitor 3.572 nM, 0.003572 µM
# [6] = inhibitor 11.547 nM, 0.011547 µM
# [7] = inhibitor 20.833 nM, 0.020833 µM
# [8] = inhibitor 0.105 nM, 0.000105 µM
# T1 sequence (P07711 114-333): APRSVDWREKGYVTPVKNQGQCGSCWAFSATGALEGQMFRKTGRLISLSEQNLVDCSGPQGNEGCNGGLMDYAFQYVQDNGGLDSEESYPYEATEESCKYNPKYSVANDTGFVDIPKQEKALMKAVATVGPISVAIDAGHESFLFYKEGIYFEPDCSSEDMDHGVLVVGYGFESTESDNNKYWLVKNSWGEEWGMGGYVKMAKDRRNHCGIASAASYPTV
# T2 sequence (O60911 114-334): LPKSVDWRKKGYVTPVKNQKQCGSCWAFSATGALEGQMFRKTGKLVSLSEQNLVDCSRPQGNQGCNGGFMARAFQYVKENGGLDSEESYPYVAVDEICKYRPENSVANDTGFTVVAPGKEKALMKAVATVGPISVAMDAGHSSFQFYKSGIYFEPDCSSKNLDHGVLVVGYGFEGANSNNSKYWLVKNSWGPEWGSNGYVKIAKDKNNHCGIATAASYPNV
smiles,measurement,setting,value
CC(C)C[C@H](NC(=O)OCc1ccccc1)C(=O)N[C@@H](C[C@@H]1CCNC1=O)C(O)S(=O)(=O)[O-].[Na+] (stereo partly drawn) [GC376],Residual activity (Vi/V0),CatL; [1],0.8855 and 0.7968 and 0.4672 and 0.774 and 0.5436 and 0.6444 and 0.6384 and 0.5984 and 0.8706 and 0.7685
same,Residual activity (Vi/V0),"CatL; inhibitor 0.340 nM, 0.00034 µM",0.6489 and 0.6117 and 0.2724 and 0.4771 and 0.3326 and 0.4189 and 0.397 and 0.4003 and 0.6575 and 0.5962
same,Residual activity (Vi/V0),CatL; [2],0.6544 and 0.4591 and 0.279 and 0.4155 and 0.2277 and 0.7268 and 0.6794 and 0.7031 and 0.6487 and 0.6608
same,Residual activity (Vi/V0),CatL; [3],0.448 and 0.2903 and 0.222 and 0.2673 and 0.2098 and 0.5439 and 0.5159 and 0.5223 and 0.4578 and 0.481
same,Residual activity (Vi/V0),CatL; [4],0.2589 and 0.1857 and 0.1649 and 0.2093 and 0.1658 and 0.3522 and 0.3323 and 0.3518 and 0.2487 and 0.2662
same,Residual activity (Vi/V0),CatL; [5],0.2062 and 0.1428 and 0.1169 and 0.1623 and 0.08981 and 0.207 and 0.1929 and 0.2019 and 0.196 and 0.2135
same,Residual activity (Vi/V0),"CatL; inhibitor 6.430 nM, 0.00643 µM",0.139 and 0.09925 and 0.07105 and 0.118 and 0.08137 and 0.1289 and 0.127 and 0.1302 and 0.1295 and 0.1384
same,Residual activity (Vi/V0),CatL; [6],0.09523 and 0.05909 and 0.04564 and 0.05812 and 0.04092 and 0.07914 and 0.07029 and 0.07354 and 0.08822 and 0.09606
same,Residual activity (Vi/V0),CatL; [7],0.05198 and 0.03378 and 0.02298 and 0.02931 and 0.02488 and 0.02998 and 0.02815 and 0.0288 and 0.05176 and 0.05151
same,Residual activity (Vi/V0),"CatL; inhibitor 37.500 nM, 0.0375 µM",0.02351 and 0.02002 and 0.01036 (2×) and 0.01453 and 0.0114 and 0.01064 and 0.01075 and 0.02418 and 0.02491
same,Residual activity (Vi/V0),"human CatV; inhibitor 0.010 nM, 10 pM",1.0857 and 1.077 and 0.9774 and 0.8982 and 0.991 and 0.8512 and 1.1 and 0.8679
same,Residual activity (Vi/V0),"human CatV; inhibitor 0.018 nM, 18 pM",1.336 and 1.266 and 0.9662 and 0.9302 and 1.04 and 0.8965 and 1.124 and 0.9597
same,Residual activity (Vi/V0),"human CatV; inhibitor 0.032 nM, 32 pM",1.039 and 0.8981 and 0.9517 and 0.9088 and 1.019 and 0.9688 and 1.292 and 0.8604
same,Residual activity (Vi/V0),"human CatV; inhibitor 0.058 nM, 58 pM",0.6518 and 0.5159 and 0.8896 and 0.8461 and 0.9826 and 0.9436 and 1.221 and 0.8427
same,Residual activity (Vi/V0),human CatV; [8],0.9622 and 0.7389 and 0.9442 and 0.8081 and 0.8801 and 0.8142 and 1.285 and 0.7581
same,Residual activity (Vi/V0),human CatV; [1],0.6972 and 0.4428 and 0.8137 and 0.7094 and 0.8934 and 0.7434 and 1.066 and 0.6389
same,Residual activity (Vi/V0),"human CatV; inhibitor 0.340 nM, 0.00034 µM",0.6247 and 0.3497 and 0.4956 and 0.4527 and 0.4873 and 0.5939 and 0.9738 and 0.4752
same,Residual activity (Vi/V0),human CatV; [2],0.3307 and 0.2457 and 0.4411 and 0.4505 and 0.4917 and 0.4681 and 0.5327 and 0.3674
same,Residual activity (Vi/V0),human CatV; [3],0.3031 and 0.1765 and 0.2948 and 0.2868 and 0.2798 and 0.3141 and 0.3564 and 0.2414
same,Residual activity (Vi/V0),"human CatK; inhibitor 0.010 nM, 10 pM",1 and 1.168 and 0.9786 and 1.164 and 0.971
same,Residual activity (Vi/V0),"human CatK; inhibitor 0.018 nM, 18 pM",1.045 and 0.9537 and 0.8787 and 1.068 and 0.891
same,Residual activity (Vi/V0),"human CatK; inhibitor 0.032 nM, 32 pM",1.008 and 0.9541 and 1.052 and 1.097 and 0.9731
same,Residual activity (Vi/V0),"human CatK; inhibitor 0.058 nM, 58 pM",0.9618 and 1.104 and 1
same,Residual activity (Vi/V0),human CatK; [8],0.7126 and 0.7756 and 0.8857 and 0.9962 and 0.9154
same,Residual activity (Vi/V0),human CatK; [1],0.687 and 0.7701 and 0.8381 and 0.9358 and 0.9354
same,Residual activity (Vi/V0),"human CatK; inhibitor 0.340 nM, 0.00034 µM",0.5857 and 0.5656 and 0.9002 and 0.8293 and 0.7129
same,Residual activity (Vi/V0),human CatK; [2],0.5454 and 0.3889 and 0.8833 and 0.6839 and 0.5394
same,Residual activity (Vi/V0),human CatK; [3],0.3854 and 0.2819 and 0.6231 and 0.4604 and 0.4262
same,Residual activity (Vi/V0),human CatK; [4],0.2545 and 0.4374 and 0.3426 and 0.223
same,Residual activity (Vi/V0),human CatK; [5],0.1189 and 0.1895 and 0.3494 and 0.2326 and 0.2097
same,Residual activity (Vi/V0),"human CatK; inhibitor 6.430 nM, 0.00643 µM",0.1182 and 0.1529 (2×) and 0.2134 and 0.1788
same,Residual activity (Vi/V0),human CatK; [6],0.09726 and 0.09205 and 0.1617 and 0.0793 and 0.08002
same,Residual activity (Vi/V0),human CatK; [7],-0.01061 and 0.0635 and 0.09619 and 0.03724 and 0.04497
same,Residual activity (Vi/V0),"human CatK; inhibitor 37.500 nM, 0.0375 µM",0.05483 and -0.02967 and 0.05665 and 0.01671
"CC(C)C[C@H](NC(=O)OCc1ccccc1)C(=O)N[C@@H](CC1CCNC1=O)C(O)S(=O)(=O)O (stereo partly drawn) [GC-376, reference compound]",Ki,"CatL; mean with standard deviation and 95% confidence interval, pH 5.5, 37 °C",0.259 nM
same,EC50,SARS-CoV-2-GFP,1070 ± 278 nM
